Type in all cases: cell-based
Data set [1] has as its system Human umbilical vein endothelial cell. In words: In Vitro Angiogenesis Assay (morphogenesis / tube formation on Matrigel). Details: key to In Vitro Angiogenesis Assay Results (score of extent of cellular networks): Individual cells, well separated (+++++); Cells begin to migrate and align themselves (++++); Cells begin to line but not sprouting (+++); Visible Sprouting (++); Closed polygons begins to form (+). Particulars: for In Vitro Angiogenesis Assay Results (score of extent of cellular networks): HUVECs 10^4 cells/well on ECMatrix, inhibitors 1 mM and 10 mM, 8 hours at 37° C., higher score = greater inhibition of angiogenesis. As to the method: In Vitro Angiogenesis Assay
Human umbilical vein endothelial cell was purchased from Cambrex Co. (East Rutherford, N.J.) and maintained in EGM (Endothelial Growth Medium) supplemented with 2% FBS, 0.1% EGF, 0.1% Hydrocortisone, 0.1% GA-1000 and 0.4% BBE.
The morphogenesis assay on Matrigel was performed according to the manufacturer's instructions (Chemicon International). The ECMatrix™ kit consists of laminin, collagen type IV, heparan sulfate, proteoglycans, entactin and nidogen. It also contains various growth factors (TGF-β, FGF) and proteolytic enzymes (plasminogen, tPA, MMPs) that are normally produced in EHS tumors. The incubation condition was optimized for maximal tube-formation as follows: 50 μl of EC Matrix™ was suitably diluted in the ratio 9:1 with 10×diluent buffer and used for coating the 96-well plate. The coated plates were incubated at 37° C. for 1 hr. to allow the Matrix solution to solidify. In the meantime the HUVECs that were cultured for 24 hours in EGM with 2% FBS was trypsinised and re-suspended in the growth media and the cells were counted. After 1 hr. pre-incubation of the plate with Matrix solution, the HUVECs were plated at 10^4 cells/well in the absence or in the presence of different VEGFR inhibitors (1 mM and 10 mM). After 8 hours incubation at 37° C., the cell three-dimensional organization (cellular network structures) was examined under an inverted photomicroscope. Each treatment was performed in triplicate.
Activated endothelial cells form cellular networks (mesh like structures) resembling capillary tubes sprouting into the stromal space. The formation of these cellular networks is a dynamic process, which started migration and alignment of cells followed by the development of capillary tubes like structures, sprouting of new branches and finally the formation of the cellular networks. Although this in vitro angiogenesis kit is designed only as a qualitative assay, we have made an attempt to quantitate the degree of angiogenesis using a scoring method. The scoring was based on the extent of the cellular networks that were observed as follows:
Individual cells, well separated (+++++)
Cells begin to migrate and align themselves (++++)
Cells begin to line but not sprouting (+++)
Closed polygons begins to form (+).
According to our qualitative assessment, the higher the scoring the greater the efficiency of the compound for inhibiting endothelial cell mediated angiogenesis.

The next data set deals with MCF-7. The data set is described as follows: Cytotoxicity towards MCF-7 breast carcinoma cell line.
Another data set deals with GI-101A. The data set is described as follows: Cytotoxicity towards GI-101A breast carcinoma cell line.

Data on seven compounds can be found in patent US7875603B2, “Specific inhibitors for vascular endothelial growth factor receptors” (Nova Southeastern University, priority 2006, dated 2011).

Broadly, the EC50 is the concentration needed to bring the measured effect to its halfway point.

Consider `CCCCCCCCCCCCCCCCOc1ccc(C(NNS(=O)(=O)c2cccc(C(=O)O)c2)N2CCCCC2)cc1` (stereo not shown) [Example 2], for which the “In Vitro Angiogenesis Assay Results (score of extent of cellular networks)” value (“In Vitro Angiogenesis Assay Results” below) in data set [1] is listed as “++++”.
The same measure, in the same setting: for `CCCCCCCCCCCCCCCCCCOc1ccc(C(=O)CC(=O)Nc2ccc(Sc3cccc(C(=O)O)c3)c(C(=O)O)c2)cc1` [Example 5] the value was “+++”.
Still for that read-out and setting: for `CCCCCCCOc1ccc(/C=N\NC(=O)c2ccc(Br)cc2)cc1` [Example 4] the value was “+++”; for `CCC(CNCCO)Nc1nc2c(c(=O)n(C)c(=O)n2C)n1Cc1ccccc1` (stereo not shown) [Example 7], “++”; for `CCCCCCCCCCOc1ccc(C(=O)N/N=C/c2ccc(OC)cc2)cc1` [Example 3], “++++”.
With `CCCCCCCCCCCCCCCCCCOc1ccc(C(=O)CC(=O)Nc2ccc(Oc3ccc(C(=O)O)cc3)c(C(=O)O)c2)cc1` [Example 6], the “In Vitro Angiogenesis Assay Results” value in data set [1] is listed as “++”.
On to `COc1ccc(NCC(O)Cn2cnc3c2c(=O)n(C)c(=O)n3C)cc1` (stereo not shown) [Example 1], for which the “In Vitro Angiogenesis Assay Results” value in data set [1] is reported as “+++++”. For the same compound, the EC50 in data set [1] (Homo sapiens, estimated, in vitro angiogenesis assay, HUVEC, read-out: EC50 value for anti-antigenic effect) was 250 nM. Further, the “cytotoxicity towards MCF-7” value in the data set with MCF-7 is on record as “produced cytotoxicity”. The “cytotoxicity towards GI-101A” value with GI-101A was “produced cytotoxicity”.
